From ChEMBL document CHEMBL3588779, “Novel 3-(1H-indol-3-yl)-2-[3-(4-methoxyphenyl)ureido]propanamides as selective agonists of human formyl-peptide receptor 2” (Bioorg Med Chem, 2015)

Assays:
fMet-Leu-Phe receptor = biological target: T1, fMet-Leu-Phe receptor (Homo sapiens, UniProt P21462); experiment: Agonist activity at human FPR1 transfected in human HL60 cells assessed as stimulation of Ca2+ influx measured every 5 secs for 240 secs by FLIPR assay; type: functional, cell-based, HL-60
T1 sequence (P21462 whole entry): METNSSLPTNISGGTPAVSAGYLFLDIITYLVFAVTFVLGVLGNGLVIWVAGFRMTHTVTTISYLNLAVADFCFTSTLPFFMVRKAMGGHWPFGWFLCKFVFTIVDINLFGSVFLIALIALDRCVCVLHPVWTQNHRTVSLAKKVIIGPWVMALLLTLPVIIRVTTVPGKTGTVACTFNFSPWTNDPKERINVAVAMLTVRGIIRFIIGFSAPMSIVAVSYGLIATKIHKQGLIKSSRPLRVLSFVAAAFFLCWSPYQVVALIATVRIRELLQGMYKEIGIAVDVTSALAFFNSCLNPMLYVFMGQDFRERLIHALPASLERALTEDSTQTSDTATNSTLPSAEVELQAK

[1] = biological target: T2, N-formyl peptide receptor 2 (Homo sapiens) (UniProt P25090); experiment: Agonist activity at human FPR2 transfected in human HL60 cells assessed as stimulation of Ca2+ influx measured every 5 secs for 240 secs by FLIPR assay relative to WKYMVm; type: functional, cell-based; settings: HL-60
T2 sequence (whole entry): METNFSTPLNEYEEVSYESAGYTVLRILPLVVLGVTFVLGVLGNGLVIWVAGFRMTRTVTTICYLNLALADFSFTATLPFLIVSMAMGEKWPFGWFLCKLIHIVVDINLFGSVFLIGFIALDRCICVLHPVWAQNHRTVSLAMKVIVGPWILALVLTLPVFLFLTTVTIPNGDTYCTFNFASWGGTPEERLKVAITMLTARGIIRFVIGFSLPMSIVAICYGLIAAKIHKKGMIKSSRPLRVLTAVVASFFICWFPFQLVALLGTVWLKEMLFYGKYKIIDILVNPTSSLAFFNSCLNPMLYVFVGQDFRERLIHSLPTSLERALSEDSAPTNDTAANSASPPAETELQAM

[2] = biological target: T2, N-formyl peptide receptor 2 (Homo sapiens); experiment: Agonist activity at FPR2 in human PMN assessed as stimulation of Ca2+ influx measured every 5 secs for 240 secs by FLIPR assay relative to fMLF in absence of probenecid; type: functional
[3] = biological target: T2, N-formyl peptide receptor 2 (Homo sapiens); experiment: Agonist activity at FPR2 in human PMN assessed as stimulation of Ca2+ influx measured every 5 secs for 240 secs by FLIPR assay relative to fMLF in presence of probenecid; type: functional
[4] = biological target: T3, Formyl peptide receptor-related sequence 1 (Mus musculus) (UniProt O08790); experiment: Agonist activity at FPR2 in BALB/c mouse assessed as stimulation of Ca2+ influx measured every 5 secs for 240 secs by FLIPR assay relative to fMLF; type: functional
T3 sequence (whole entry): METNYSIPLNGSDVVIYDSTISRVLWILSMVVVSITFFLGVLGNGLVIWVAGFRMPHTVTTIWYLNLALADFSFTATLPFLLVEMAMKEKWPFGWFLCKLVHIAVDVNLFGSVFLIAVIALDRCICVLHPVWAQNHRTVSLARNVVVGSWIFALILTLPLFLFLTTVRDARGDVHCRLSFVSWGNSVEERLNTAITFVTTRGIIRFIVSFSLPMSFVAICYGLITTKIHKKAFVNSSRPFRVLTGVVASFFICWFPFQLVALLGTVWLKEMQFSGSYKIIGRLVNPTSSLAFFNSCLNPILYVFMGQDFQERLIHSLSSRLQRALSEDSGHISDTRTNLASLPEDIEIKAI

Liver microsome [5] = settings: rat, microsomes, 1 µM
Description: Half life in rat liver microsomes at 1 uM preincubated for 10 mins followed by addition of NADPH regenerating system by LC-MS analysis

Liver microsome [6] = settings: rat, microsomes, 1 µM; remark: listed apart in the source
[7] = biological target: T4, N-formyl peptide receptor 2 (Homo sapiens, UniProt P25090); experiment: Agonist activity at human FPR2 transfected in human HL60 cells assessed as stimulation of Ca2+ influx measured every 5 secs for 240 secs by FLIPR assay; type: functional, cell-based, HL-60
T4 sequence (P25090 whole entry): T2 sequence (whole entry)

[8] = biological target: T4, N-formyl peptide receptor 2; experiment: Agonist activity at FPR2 in human PMN assessed as stimulation of Ca2+ influx measured every 5 secs for 240 secs by FLIPR assay in absence of probenecid; type: functional
[9] = biological target: T4, N-formyl peptide receptor 2; experiment: Agonist activity at FPR2 in human PMN assessed as stimulation of Ca2+ influx measured every 5 secs for 240 secs by FLIPR assay in presence of probenecid; type: functional
[10] = biological target: T5, fMet-Leu-Phe receptor (Homo sapiens) (UniProt P21462); experiment: Agonist activity at human FPR1 transfected in human HL60 cells assessed as stimulation of Ca2+ influx measured every 5 secs for 240 secs by FLIPR assay relative to fMLF; type: functional, cell-based; settings: HL-60
T5 sequence (whole entry): T1 sequence (P21462 whole entry)

Structure (SMILES) | EC50 (fMet-Leu-Phe receptor; hl-60) | Efficacy [1] | Efficacy [2] | Efficacy [3] | Efficacy [4] | t1/2 (Liver microsome [5]) | CLH (Liver microsome [6]) | EC50 ([7]; hl-60) | EC50 [8] | EC50 [9] | EC50 ([7]; read-out: EC50) | EC50 ([9]; read-out: EC50) | EC50 ([8]; read-out: EC50) | EC50 (fMet-Leu-Phe receptor; read-out: EC50) | Efficacy [10]
COc1ccc(NC(=O)N[C@H](Cc2c[nH]c3ccccc23)C(=O)NCC2(c3ccc(OC)cn3)CCCCC2)cc1 | Not Active | 100% | 40% | 95% | 30% | 1.2 min | 1290.6 µL/min/mg | – | – | – | – | – | – | – | –
O=C(O)Cc1ccccc1Nc1c(Cl)cccc1Cl [DICLOFENAC] | – | – | – | – | – | 8.7 min | 159.8 µL/min/mg | – | – | – | – | – | – | – | –
COc1ccc(NC(=O)N[C@@H](Cc2c[nH]c3ccccc23)C(=O)NCC2(c3ccccc3)CCCCC2)cc1 | Not Active | – | – | – | 60% | – | – | Not Active | Not Active | Not Active | – | – | – | – | –
COc1ccc(C2(CNC(=O)[C@](C)(Cc3c[nH]c4ccccc34)NC(=O)Nc3ccc([N+](=O)[O-])cc3)CCCCC2)nc1 | – | – | – | – | – | 4.4 min | 314.1 µL/min/mg | – | – | – | – | – | – | – | –
COc1ccc(NC(=O)N[C@H](Cc2c[nH]c3ccccc23)C(=O)NCC2(c3ccnc(F)c3)CCCCC2)cc1 | Not Active | – | – | – | 65% | – | – | Not Active | Not Active | Not Active | – | – | – | – | –
COc1ccc(NC(=O)N[C@@H](Cc2c[nH]c3ccccc23)C(=O)NCC2(c3ccc(F)cc3)CCCCC2)cc1 | Not Active | 40% | – | 55% | 25% | – | – | – | Not Active | – | 860 nM | 1100 nM | – | – | –
COc1ccc(NC(=O)N[C@@H](Cc2c[nH]c3ccccc23)C(=O)NCC2(c3ccnc(F)c3)CCCCC2)cc1 | Not Active | 115% | 55% | 130% | 50% | – | – | – | – | – | 1600 nM | 660 nM | 12600 nM | – | –
COc1ccc(NC(=O)N[C@@H](Cc2c[nH]c3ccccc23)C(=O)NCC2(c3ccccn3)CCCCC2)cc1 | – | 135% | 85% | 120% | 80% | – | 2173.4 µL/min/mg | – | – | – | 430 nM | 450 nM | 1800 nM | 950 nM | 115%
COc1ccc(NC(=O)N[C@@H](Cc2c[nH]c3ccccc23)C(=O)NCC2(c3ccc(OC)cn3)CCCCC2)cc1 | – | 120% | – | 105% | 110% | 1.1 min | 1162.4 µL/min/mg | – | – | – | – | – | – | 430 nM | 130%
COc1ccc(NC(=O)N[C@H](Cc2c[nH]c3ccccc23)C(=O)NCC2(c3ccc(F)cc3)CCCCC2)cc1 | Not Active | – | – | – | 25% | – | – | Not Active | Not Active | Not Active | – | – | – | – | –
COc1ccc(NC(=O)N[C@H](Cc2c[nH]c3ccccc23)C(=O)NCC2(c3cccnc3)CCCCC2)cc1 | Not Active | – | – | – | 80% | – | – | Not Active | Not Active | Not Active | – | – | – | – | –
COc1ccc(NC(=O)N[C@H](Cc2c[nH]c3ccccc23)C(=O)NCC2(c3ccccc3)CCCCC2)cc1 | Not Active | 65% | – | 40% | 35% | – | – | – | Not Active | – | 260 nM | 970 nM | – | – | –
COc1ccc(NC(=O)N[C@H](Cc2c[nH]c3ccccc23)C(=O)NCC2(c3ccccn3)CCCCC2)cc1 | Not Active | 90% | 40% | 115% | 55% | 0.6 min | 2476 µL/min/mg | – | – | – | 310 nM | 490 nM | 620 nM | – | –
COc1ccc(NC(=O)N[C@@H](Cc2c[nH]c3ccccc23)C(=O)NCC2(c3cccnc3)CCCCC2)cc1 | Not Active | 75% | 30% | 105% | 75% | – | – | – | – | – | 730 nM | 270 nM | 1800 nM | – | –
